In paper PMC5259792, “A new serotonin 5-HT6 receptor antagonist with procognitive activity – Importance of a halogen bond interaction to stabilize the binding” (Scientific Reports, 2017):
Entries after “also recorded” stand apart in the source; their conditions may differ.

Experiments:
human 5-HT6R = human 5-HT6R (Homo sapiens, UniProt P50406); test: 5-HT6R radioligand competitive binding assay ([3H]LSD)
5-HT6R S193A = molecular target: T1, 5-HT6R S193A (Homo sapiens, UniProt P50406, S193A); test: 5-HT6R AC assay (cAMP), S193A mutant; assay type: cell-based
T1 construct: host or cells: HEK-293

5-HT6R F285A = molecular target: T2, 5-HT6R F285A (Homo sapiens, UniProt P50406, F285A); test: 5-HT6R AC assay (cAMP), F285A mutant; assay type: cell-based
T2 construct: host or cells: HEK-293

human 5-HT6R WT = molecular target: T3, human 5-HT6R WT (Homo sapiens, UniProt P50406); test: 5-HT6R AC assay (cAMP), wild type receptor; assay type: cell-based; conditions: for disappearance of the 5-HT induced response / functional character at the human 5-HT6R in the AC assay / increase in cAMP levels by ligand alone (agonist effect): HEK-293 cells expressing human 5-HT6R; for IC50: read-out: pIC50, inhibition of 5-HT-induced stimulation of cAMP (converted)
T3 construct: host or cells: HEK-293

5-HT6R C110A = molecular target: T4, 5-HT6R C110A (Homo sapiens, UniProt P50406, C110A); test: 5-HT6R AC assay (cAMP), C110A mutant; assay type: cell-based
T4 construct: host or cells: HEK-293

5-HT6R N288A = molecular target: T5, 5-HT6R N288A (Homo sapiens, UniProt P50406, N288A); test: 5-HT6R AC assay (cAMP), N288A mutant; assay type: cell-based
T5 construct: host or cells: HEK-293

[1] = Parallel artificial membrane permeability assay (PAMPA); assay type: in vitro ADME; conditions: PBS pH 7.4, 25 °C, read-out: permeability value (P)
[2] = test system: rats (time-induced memory deficit); test: Novel object recognition task (NORT); assay type: in vivo, rat; conditions: male Wistar rats, 60 min before each session
hERG K+ channel = molecular target: T6, hERG K+ channel (Homo sapiens, UniProt Q12809); test: hERG whole-cell patch clamp assay; assay type: cell-based; conditions: CHO-K1 cells, n = 3, read-out: IC50, blockade of hERG K+ channel current
T6 construct: host or cells: CHO-K1

[3] = molecular target: T7, serotonin 5-HT2A receptor (Homo sapiens, UniProt P28223); test: Selectivity panel radioligand binding, 5-HT2A; conditions: [3H]ketanserin (0.5 nM), 60 min, RT, read-out: Inhibition (%) (displacement of radioligand)
T7 construct: Eurofins Cerep (France)

[4] = molecular target: human serum albumin (HSA) (Homo sapiens, UniProt P02768); test: HSA binding; assay type: in vitro ADME; conditions: 5 μM
[5] = Metabolic stability in human liver microsomes; assay type: in vitro ADME; conditions: HLMs, compound at 5 μM
Experimental: (§1) The high-affinity antagonist 7 was selected for the assessment of in vitro pharmacokinetic properties. Metabolic stability using rat and human liver microsomes (RLMs and HLMs, respectively) was determined as a measure of first-pass metabolism. Test compound was incubated at a concentration of 1 and 5 μM with RLM and HLM preparations, respectively. The half-life time (t1/2) was used to calculate the intrinsic clearance (CLint). […] An in vitro fluorescence-based inhibition assay was conducted with cytochrome P450 2D6 (CYP2D6), one of the most important enzymes involved in drug metabolism, using human recombinant microsomal CYP2D6 enzyme, AMMC {3-[2-(N,N-diethyl-N-methylamino)ethyl]-7-methoxy-4-methylcoumarin} as substrate, and quinidine as control inhibitor. After 30 min of incubation with compound 7 at a concentration of 10 μM, a remaining activity of 78% of the cytochrome was found.
(§2) RLM and HLM stability, HSA binding, and fluorescence-based CYP2D6 inhibition assays were performed according to previously reported procedures. Inhibition of hERG K^+ channel current was determined in an automated patch clamp assay using whole CHO-K1 cells at Eurofins Panlab (USA), according to previously published method.

CYP2D6 = CYP2D6 (Homo sapiens, UniProt P10635); test: Fluorescence-based CYP2D6 inhibition assay; assay type: in vitro ADME; conditions: human recombinant microsomal CYP2D6 enzyme, 30 min incubation, AMMC substrate, read-out: remaining activity of CYP2D6
Experimental: as §1, §2

[6] = molecular target: T8, serotonin 5-HT2B receptor (Homo sapiens, UniProt P41595); test: Selectivity panel radioligand binding, 5-HT2B; conditions: [3H]mesulergine, 60 min, RT, read-out: Inhibition (%) (displacement of radioligand)
T8 construct: Eurofins Cerep (France)

[7] = Metabolic stability in rat liver microsomes; assay type: in vitro ADME
Experimental: as §1, §2

[8] = read-out: pIC50, inhibition of 5-HT-induced stimulation of cAMP (converted)

Chain of human 5-HT6R (P50406 whole entry): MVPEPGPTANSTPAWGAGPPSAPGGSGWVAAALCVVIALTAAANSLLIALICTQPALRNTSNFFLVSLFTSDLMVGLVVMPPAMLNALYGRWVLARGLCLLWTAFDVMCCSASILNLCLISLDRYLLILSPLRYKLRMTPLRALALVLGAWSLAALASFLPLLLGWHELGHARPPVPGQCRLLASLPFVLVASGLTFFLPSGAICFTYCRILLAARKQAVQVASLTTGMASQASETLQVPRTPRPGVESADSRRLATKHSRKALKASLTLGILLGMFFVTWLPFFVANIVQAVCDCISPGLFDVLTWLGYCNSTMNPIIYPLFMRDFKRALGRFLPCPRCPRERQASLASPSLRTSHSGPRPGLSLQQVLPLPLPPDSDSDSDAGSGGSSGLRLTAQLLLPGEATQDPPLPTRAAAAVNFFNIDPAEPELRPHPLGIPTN
T3 sequence (P50406 whole entry): as above
T4 sequence (P50406 whole entry C110A): as the sequence (P50406 whole entry) above, with C110A counted along it
T2 sequence (P50406 whole entry F285A): as the sequence (P50406 whole entry) above, with F285A counted along it
T1 sequence (P50406 whole entry S193A): as the sequence (P50406 whole entry) above, with S193A counted along it
T5 sequence (P50406 whole entry N288A): as the sequence (P50406 whole entry) above, with N288A counted along it
T8 sequence (P41595 whole entry): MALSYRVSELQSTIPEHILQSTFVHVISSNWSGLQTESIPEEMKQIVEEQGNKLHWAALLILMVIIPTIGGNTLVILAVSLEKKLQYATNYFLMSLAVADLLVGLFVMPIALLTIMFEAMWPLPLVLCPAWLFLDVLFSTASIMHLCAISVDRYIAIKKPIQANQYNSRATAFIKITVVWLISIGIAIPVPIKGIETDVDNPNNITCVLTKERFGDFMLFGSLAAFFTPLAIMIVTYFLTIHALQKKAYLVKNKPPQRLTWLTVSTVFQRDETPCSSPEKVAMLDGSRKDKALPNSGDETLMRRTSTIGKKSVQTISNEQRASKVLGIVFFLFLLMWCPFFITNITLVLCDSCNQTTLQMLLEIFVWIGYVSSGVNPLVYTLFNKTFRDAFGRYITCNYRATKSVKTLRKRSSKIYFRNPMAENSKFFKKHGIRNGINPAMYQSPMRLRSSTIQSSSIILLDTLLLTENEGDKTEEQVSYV
T6 sequence (Q12809 whole entry): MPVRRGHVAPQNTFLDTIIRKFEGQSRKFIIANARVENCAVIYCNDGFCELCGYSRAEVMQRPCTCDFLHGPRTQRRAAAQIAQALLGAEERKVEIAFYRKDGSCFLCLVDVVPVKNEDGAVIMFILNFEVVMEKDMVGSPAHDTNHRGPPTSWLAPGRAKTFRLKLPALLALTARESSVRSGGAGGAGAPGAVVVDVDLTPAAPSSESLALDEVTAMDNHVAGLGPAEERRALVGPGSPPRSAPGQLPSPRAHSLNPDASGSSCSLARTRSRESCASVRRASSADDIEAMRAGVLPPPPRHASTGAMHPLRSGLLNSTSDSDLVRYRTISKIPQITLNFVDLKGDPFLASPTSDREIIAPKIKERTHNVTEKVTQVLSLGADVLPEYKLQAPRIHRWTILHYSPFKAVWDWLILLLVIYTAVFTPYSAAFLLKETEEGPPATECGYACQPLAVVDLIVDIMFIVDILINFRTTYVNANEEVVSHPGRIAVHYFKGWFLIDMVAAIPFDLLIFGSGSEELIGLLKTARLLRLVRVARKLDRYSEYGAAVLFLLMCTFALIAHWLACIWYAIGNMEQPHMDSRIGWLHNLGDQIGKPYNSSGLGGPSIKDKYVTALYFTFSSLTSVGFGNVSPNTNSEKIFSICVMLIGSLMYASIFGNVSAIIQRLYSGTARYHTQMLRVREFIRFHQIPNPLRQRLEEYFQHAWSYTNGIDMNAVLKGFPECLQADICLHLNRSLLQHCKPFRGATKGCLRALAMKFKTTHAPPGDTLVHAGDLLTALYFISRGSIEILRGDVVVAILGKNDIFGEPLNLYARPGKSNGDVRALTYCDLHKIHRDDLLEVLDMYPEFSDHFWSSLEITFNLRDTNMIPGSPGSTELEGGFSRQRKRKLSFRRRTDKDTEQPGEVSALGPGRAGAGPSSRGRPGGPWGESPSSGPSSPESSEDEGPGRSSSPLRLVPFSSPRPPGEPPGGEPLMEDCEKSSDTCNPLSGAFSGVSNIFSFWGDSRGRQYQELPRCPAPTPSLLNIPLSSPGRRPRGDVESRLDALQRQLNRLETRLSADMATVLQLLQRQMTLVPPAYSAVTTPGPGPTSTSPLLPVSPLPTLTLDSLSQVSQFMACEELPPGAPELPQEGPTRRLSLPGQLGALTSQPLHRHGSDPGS
Chain of CYP2D6 (P10635 whole entry): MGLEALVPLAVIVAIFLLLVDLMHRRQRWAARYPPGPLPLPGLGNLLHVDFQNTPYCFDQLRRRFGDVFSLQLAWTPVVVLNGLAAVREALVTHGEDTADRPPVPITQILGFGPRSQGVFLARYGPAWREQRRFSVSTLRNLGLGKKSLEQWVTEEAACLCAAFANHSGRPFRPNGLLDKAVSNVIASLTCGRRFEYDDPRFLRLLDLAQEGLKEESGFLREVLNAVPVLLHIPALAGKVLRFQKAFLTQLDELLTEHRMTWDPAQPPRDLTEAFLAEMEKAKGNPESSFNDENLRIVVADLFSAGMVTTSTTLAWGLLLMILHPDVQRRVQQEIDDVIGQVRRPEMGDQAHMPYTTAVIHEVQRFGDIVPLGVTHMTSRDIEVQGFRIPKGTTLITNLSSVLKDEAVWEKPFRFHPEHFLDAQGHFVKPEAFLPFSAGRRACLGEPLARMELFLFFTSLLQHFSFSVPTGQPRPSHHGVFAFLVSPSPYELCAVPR
T7 sequence (P28223 whole entry): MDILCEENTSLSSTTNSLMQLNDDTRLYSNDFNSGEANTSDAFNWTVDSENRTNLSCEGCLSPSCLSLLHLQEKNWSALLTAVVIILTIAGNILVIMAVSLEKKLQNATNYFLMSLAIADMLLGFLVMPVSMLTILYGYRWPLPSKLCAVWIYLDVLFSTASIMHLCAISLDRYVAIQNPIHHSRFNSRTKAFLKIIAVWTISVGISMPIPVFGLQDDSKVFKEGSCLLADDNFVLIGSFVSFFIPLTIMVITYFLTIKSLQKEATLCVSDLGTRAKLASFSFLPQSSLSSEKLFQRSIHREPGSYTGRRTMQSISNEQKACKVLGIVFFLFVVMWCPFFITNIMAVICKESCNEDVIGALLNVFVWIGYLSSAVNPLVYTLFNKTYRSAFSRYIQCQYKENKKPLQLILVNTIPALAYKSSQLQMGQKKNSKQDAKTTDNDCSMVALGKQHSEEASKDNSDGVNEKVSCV
Chain of human serum albumin (HSA) (P02768 25-609): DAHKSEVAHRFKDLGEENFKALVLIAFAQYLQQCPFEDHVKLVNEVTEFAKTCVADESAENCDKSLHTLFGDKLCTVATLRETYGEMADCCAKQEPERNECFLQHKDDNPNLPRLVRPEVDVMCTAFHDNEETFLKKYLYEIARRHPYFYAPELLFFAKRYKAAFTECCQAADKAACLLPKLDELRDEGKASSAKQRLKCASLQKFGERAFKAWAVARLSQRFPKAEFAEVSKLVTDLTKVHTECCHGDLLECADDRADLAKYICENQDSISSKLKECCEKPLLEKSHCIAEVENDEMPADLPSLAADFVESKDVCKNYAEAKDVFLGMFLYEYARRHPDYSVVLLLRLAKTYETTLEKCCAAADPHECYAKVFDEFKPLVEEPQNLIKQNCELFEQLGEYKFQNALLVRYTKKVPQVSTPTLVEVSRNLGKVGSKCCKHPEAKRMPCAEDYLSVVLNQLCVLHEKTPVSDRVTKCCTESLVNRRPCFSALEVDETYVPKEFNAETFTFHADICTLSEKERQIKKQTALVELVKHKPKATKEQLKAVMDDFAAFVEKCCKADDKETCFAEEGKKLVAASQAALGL

SMILES	Ki (human 5-HT6R)	melting point	other results
CN(C)CCCn1cnc2c(C(=O)Nc3ccccc3)cccc21 [Compound S1]	> 500 nM	104 to 106 °C	–
CN(C)CCCn1cnc2cc(C(=O)Nc3ccccc3)ccc21 [Compound S2]	> 500 nM	108 to 110 °C	–
CN(C)CCn1cnc2c(NS(=O)(=O)c3ccc4c(Cl)cccc4c3)cccc21 [Compound 5]	64 nM	76 to 78 °C	–
CN(C)CCn1cnc2ccc(NS(=O)(=O)c3ccc4cc(Cl)ccc4c3)cc21 [Compound 14]	> 500 nM	181 °C (dec.)	–
CN(C)CCn1cnc2c(NC(=O)c3ccccc3)cccc21 [Compound S7]	> 500 nM	109 to 112 °C	–
CN(C)CCn1cnc2ccc(NC(=O)c3ccccc3)cc21 [Compound S9]	> 500 nM	115 to 117 °C	–
Cc1c(S(=O)(=O)Nc2ccc3ncn(CCN(C)C)c3c2)sc2ccc(Br)cc12 [Compound 17]	37 nM	–	–
Cc1c(S(=O)(=O)Nc2ccc3c(c2)ncn3CCN(C)C)sc2ccc(Cl)cc12 [Compound 9]	245 nM	90 to 93 °C	–
NCCc1c[nH]c2ccc(O)cc12 [Compound 5-HT, 5-HT]	–	–	cAMP release (5-HT) Efficacy (5-HT6R S193A; 5-HT6R S193A): agonist; cAMP release (5-HT) Efficacy (5-HT6R F285A; 5-HT6R F285A): agonist; cAMP release (5-HT) Efficacy (human 5-HT6R WT; 5-HT6R WT): agonist; cAMP release (5-HT) Efficacy (5-HT6R C110A; 5-HT6R C110A): agonist; cAMP release (5-HT) Efficacy (5-HT6R N288A; 5-HT6R N288A): agonist
CN(C)CCn1cnc2cc(NC(=O)c3ccccc3)ccc21 [Compound S8]	> 500 nM	113 to 115 °C	–
CN(C)CCn1cnc2cccc(NS(=O)(=O)c3ccccc3)c21 [Compound S11]	> 500 nM	142 to 145 °C	–
CN(C)CCn1cnc2ccc(NS(=O)(=O)c3cccc4c(Cl)cccc34)cc21 [Compound 15]	238 nM	223 °C (dec.)	–
Cc1c(S(=O)(=O)Nc2ccc3ncn(CCN(C)C)c3c2)sc2ccc(Cl)cc12 [Compound 10]	25 nM	114 to 115 °C	disappearance of the 5-HT induced response (human 5-HT6R WT): ≥ 95%; functional character at the human 5-HT6R in the AC assay (human 5-HT6R WT): antagonists; increase in cAMP levels by ligand alone (agonist effect) (human 5-HT6R WT): did not induce a substantial increase in cAMP levels; IC50 (human 5-HT6R WT): 50.1 nM
CN(C)CCn1cnc2c(NS(=O)(=O)c3c(Cl)nc4sccn34)cccc21 [Compound 11]	200 ± 13 nM	71 to 74 °C	–
CN(C)CCn1cnc2ccc(NS(=O)(=O)c3ccccc3)cc21 [Compound 4]	200 ± 10 nM	138 to 140 °C	–
CN(C)CCn1cnc2cc(NS(=O)(=O)c3ccc4c(Cl)cccc4c3)ccc21 [Compound 6]	112 nM	92 to 95 °C	–
Cc1c(S(=O)(=O)Nc2ccc3ncn(CCN(C)C)c3c2)sc2ccccc12 [Compound 19]	195 nM	175 to 176 °C	–
CC(C)NCC(O)COc1cccc2ccccc12 (centres unmarked) [propranolol, reference compound]	–	–	Papp at 5 h, 200 μM [1]: 25 ×10⁻⁶ cm/s
Cc1c(S(=O)(=O)Nc2cccc3c2ncn3CCN(C)C)sc2ccc(Cl)cc12 [Compound 8]	89 nM	90 to 93 °C	–
CN(C)CCn1cnc2c(NS(=O)(=O)c3ccccc3)cccc21 [Compound 2]	243 ± 15 nM	121 to 123 °C	–
CN(C)CCn1cnc2cccc(NC(=O)c3ccccc3)c21 [Compound S10]	> 500 nM	98 to 101 °C	–
CN(C)CCn1cnc2cc(NS(=O)(=O)c3c(Cl)nc4sccn34)ccc21 [Compound 12]	33 ± 3 nM	99 to 101 °C	–
CN(C)CCn1cnc2ccc(NS(=O)(=O)c3ccc4c(Cl)cccc4c3)cc21 [Compound 7, 5-Chloro-N-{1-[2-(dimethylamino)ethyl]-1H-benzimidazol-6-yl}naphthalene-2-sulfonamide]	9 nM	–	effect on time-induced memory deficit in NORT (exploration of novel vs familiar object) ([2]; 1 mg/kg, ip, 1 mg/kg): in vivo procognitive activity; also recorded: animals spent more time exploring the novel object than the familiar one; also recorded: significant reversal of the time-delay induced memory deficit; Papp at 5 h, 200 μM [1]: 12 ×10⁻⁶ cm/s; IC50 (hERG K+ channel): > 10000 nM; IC50 (5-HT6R S193A; [8]): 1260 nM; inhibition at 1 µM [3]: < 23%; binding to HSA [4]: 70%; CLint scaled at 5 μM ([5]; calculated from t1/2, read-out: intrinsic clearance (CLint)): 8 mL/min/kg; half-life at 5 μM ([5]; read-out: half-life time (t1/2)): 77.5 min; IC50 (5-HT6R F285A; [8]): ~31600 nM; activity at 30 min, 10 µM (CYP2D6): 78%; inhibition at 1 µM [6]: 16%; disappearance of the 5-HT induced response (human 5-HT6R WT): ≥ 95%; functional character at the human 5-HT6R in the AC assay (human 5-HT6R WT): antagonists; increase in cAMP levels by ligand alone (agonist effect) (human 5-HT6R WT): did not induce a substantial increase in cAMP levels; IC50 (human 5-HT6R WT): 15.8 nM; IC50 (5-HT6R C110A; [8]): 158 nM; half-life at 1 μM ([7]; RLMs, compound at 1 μM, read-out: half-life time (t1/2)): 20.7 min; CLint scaled at 1 μM ([7]; read-out: intrinsic clearance (CLint)): 67.8 mL/min/kg; IC50 (5-HT6R N288A; [8]): 126 nM
CN(C)CCn1cnc2ccc(NS(=O)(=O)c3ccc4c(Br)cccc4c3)cc21 [Compound 16]	12 nM	–	–
CN(C)CCn1cnc2cc(NS(=O)(=O)c3ccccc3)ccc21 [Compound 3]	213 ± 8 nM	178 to 180 °C	–
CN(C)CCn1cnc2ccc(NS(=O)(=O)c3ccc4ccccc4c3)cc21 [Compound 18]	144 nM	207 to 208 °C	–
Nc1c2c(nc3ccccc13)CCCC2 [tacrine, reference compound]	–	–	effect on time-induced memory deficit in NORT (exploration of novel vs familiar object) ([2]; 0.5 mg/kg, po): animals spent more time exploring the novel object than the familiar one
CN(C)CCn1cnc2ccc(NS(=O)(=O)c3c(Cl)nc4sccn34)cc21 [Compound 13]	182 ± 6 nM	139 to 141 °C	–
